Reference: patent US10822632B2, “Medium for detecting Staphylococcus aureus, sheet for detecting S. aureus comprising same, and method for detecting S. aureus using same” (DAI NIPPON PRINTING CO., LTD., priority 2016, dated 2020)

What was measured:
Test in all cases: Experiment 4: growth on culture sheet containing colistin sodium methanesulfonate
Type in all cases: cell-based
[1] = tested on: Staphylococcus aureus ATCC25923; conditions: tested concentration of 0.3 to 4.1 mg/cm^3 (0.1 to 1.6 mg/ml in the sample solution)
Procedure: (§1) A given type of microbial strains to be tested were inoculated into a liquid medium (SCD broth medium), and culture was conducted at 35° C. for 24 hours to prepare a test microbial suspension. This test microbial suspension was diluted with phosphate buffered physiological saline to adjust the cell density to about 1 to 500 cfu/ml. The resulting test microbial sample (1 ml) was inoculated into the culture layer of the microorganism culture sheet prepared with the use of the medium liquid containing the components shown in Table 1 using a micropipette. The microorganism culture sheet into which the sample had been inoculated was allowed to stand in an incubator and culture was then conducted at 35° C. for 24 or 48 hours. After the completion of culture, the microorganism culture sheet was removed from the incubator. The color of the colony formed in the culture layer of the microorganism culture sheet and the color intensity were visually inspected. Each test microbial strain was subjected to the experiment described above. The names of the microbial strains to be tested used for the experiment and the conditions and the color of the colonies formed by the strains are shown in Table 2.
(§2) A test microbial sample was prepared in the same manner as in Experiment 1. Also, the microorganism culture sheet was prepared in the same manner as in Experiment 1. […]

[2] = tested on: Staphylococcus aureus NBRC100910; conditions: tested concentration of 0.3 to 4.1 mg/cm^3 (0.1 to 1.6 mg/ml in the sample solution)
Procedure: as §1, §2

[3] = tested on: Staphylococcus intermedius ATCC29663; parameters: key: the term “Inhibited” indicates the condition under which the growth was inhibited; a blank column indicates that a colony was formed under normal growth condition; conditions: culture 24 hours
Procedure: as §1
(§3) A test microbial sample was prepared in the same manner as in Experiment 1. Also, the microorganism culture sheet was prepared in the same manner as in Experiment 1. […] With the use of a micropipette, 1 ml of the test microbial sample was inoculated into a culture layer of the microorganism culture sheet. In the same manner as with Experiment 1, the microorganism culture sheet into which the sample had been inoculated was subjected to incubation, culture was conducted for 24 hours, and the color of the colony formed in the culture layer of the microorganism culture sheet and the color intensity were visually inspected. Each test microbial strain was subjected to the experiment described above. The names of the microbial strains to be tested used for the experiment and the conditions of the colonies formed by the strains are shown in Table 5. […] The colistin sodium methanesulfonate concentration indicated in the upper column is mass concentration (mg/cm^3) relative to the total volume of the dried culture layer before the sample was inoculated thereinto, and the concentration indicated in the lower column is mass concentration (mg/ml) relative to the total volume of the sample solution that was inoculated into the culture layer at the time of use.

[4] = tested on: Staphylococcus aureus NBRC12732; parameters: key to Growth condition of the colony: the term “Inhibited” indicates the condition under which the growth was inhibited; a blank column indicates that a colony was formed under normal growth condition; conditions: for Growth condition of the colony: culture 24 hours
Procedure: as §1, §3

[5] = tested on: Staphylococcus carnosus (Derived from roast beef); parameters: key to Growth condition of the colony: the term “Inhibited” indicates the condition under which the growth was inhibited; a blank column indicates that a colony was formed under normal growth condition; conditions: for Growth condition of the colony: culture 24 hours
Procedure: as §1, §3

[6] = tested on: Staphylococcus saprophyticus subsp. saprophyticus NBRC102446; parameters: key to Growth condition of the colony: the term “Inhibited” indicates the condition under which the growth was inhibited; a blank column indicates that a colony was formed under normal growth condition; conditions: for Growth condition of the colony: culture 24 hours
Procedure: as §1, §3

[7] = tested on: Staphylococcus sciuri ATCC29062; parameters: key to Growth condition of the colony: the term “Inhibited” indicates the condition under which the growth was inhibited; a blank column indicates that a colony was formed under normal growth condition; conditions: for Growth condition of the colony: culture 24 hours
Procedure: as §1, §3

[8] = tested on: Staphylococcus xylosus NBRC109770; parameters: key to Growth condition of the colony: the term “Inhibited” indicates the condition under which the growth was inhibited; a blank column indicates that a colony was formed under normal growth condition; conditions: for Growth condition of the colony: culture 24 hours
Procedure: as §1, §3

[9] = colistin 3.3 mg/cm^3 dried culture layer (1.3 mg/ml sample solution)
[10] = colistin 3.6 mg/cm^3 dried culture layer (1.4 mg/ml sample solution)
[11] = colistin 3.8 mg/cm^3 dried culture layer (1.5 mg/ml sample solution)
[12] = colistin 4.1 mg/cm^3 dried culture layer (1.6 mg/ml sample solution)
[13] = colistin 3.1 mg/cm^3 dried culture layer (1.2 mg/ml sample solution)
[14] = mass concentration in the sample solution
[15] = mass concentration relative to total volume of dried culture layer
[16] = colistin 1.3 mg/cm^3 dried culture layer (0.5 mg/ml sample solution)
[17] = colistin 1.5 mg/cm^3 dried culture layer (0.6 mg/ml sample solution)
[18] = colistin 1.8 mg/cm^3 dried culture layer (0.7 mg/ml sample solution)
[19] = colistin 2.0 mg/cm^3 dried culture layer (0.8 mg/ml sample solution)
[20] = colistin 2.3 mg/cm^3 dried culture layer (0.9 mg/ml sample solution)
[21] = colistin 2.5 mg/cm^3 dried culture layer (1 mg/ml sample solution)
[22] = colistin 2.8 mg/cm^3 dried culture layer (1.1 mg/ml sample solution)

## colistin sodium methanesulfonate
[1]
  Growth inhibition: did not inhibit the growth
[2]
  Growth inhibition: did not inhibit the growth
[3]; [9]
  Growth condition of the colony: Inhibited
[3]; [10]
  Growth condition of the colony: Inhibited
[3]; [11]
  Growth condition of the colony: Inhibited
[3]; [12]
  Growth condition of the colony: Inhibited
[4]; [13]
  Growth condition of the colony: Inhibited
[4]; [9]
  Growth condition of the colony: Inhibited
[4]; [10]
  Growth condition of the colony: Inhibited
[4]; [11]
  Growth condition of the colony: Inhibited
[4]; [12]
  Growth condition of the colony: Inhibited
[4]; [14]
  Concentration at which growth was inhibited: 1.2 mg/mL
[4]; [15]
  Concentration at which growth was inhibited: 3.1 mg/mL
[5]; [16]
  Growth condition of the colony: Inhibited
[5]; [17]
  Growth condition of the colony: Inhibited
[5]; [18]
  Growth condition of the colony: Inhibited
[5]; [19]
  Growth condition of the colony: Inhibited
[5]; [20]
  Growth condition of the colony: Inhibited
[5]; [21]
  Growth condition of the colony: Inhibited
[5]; [22]
  Growth condition of the colony: Inhibited
[5]; [13]
  Growth condition of the colony: Inhibited
[5]; [9]
  Growth condition of the colony: Inhibited
[5]; [10]
  Growth condition of the colony: Inhibited
[5]; [11]
  Growth condition of the colony: Inhibited
[5]; [12]
  Growth condition of the colony: Inhibited
[5]; [14]
  Concentration at which growth was inhibited: ≥ 0.5 mg/mL
[5]; [15]
  Concentration at which growth was inhibited: ≥ 1.3 mg/mL
[6]; colistin 0.5 mg/cm^3 dried culture layer (0.2 mg/ml sample solution)
  Growth condition of the colony: Inhibited
[6]; colistin 0.8 mg/cm^3 dried culture layer (0.3 mg/ml sample solution)
  Growth condition of the colony: Inhibited
[6]; colistin 1.0 mg/cm^3 dried culture layer (0.4 mg/ml sample solution)
  Growth condition of the colony: Inhibited
[6]; [16]
  Growth condition of the colony: Inhibited
[6]; [17]
  Growth condition of the colony: Inhibited
[6]; [18]
  Growth condition of the colony: Inhibited
[6]; [19]
  Growth condition of the colony: Inhibited
[6]; [20]
  Growth condition of the colony: Inhibited
[6]; [21]
  Growth condition of the colony: Inhibited
[6]; [22]
  Growth condition of the colony: Inhibited
[6]; [13]
  Growth condition of the colony: Inhibited
[6]; [9]
  Growth condition of the colony: Inhibited
[6]; [10]
  Growth condition of the colony: Inhibited
[6]; [11]
  Growth condition of the colony: Inhibited
[6]; [12]
  Growth condition of the colony: Inhibited
[6]; [14]
  Concentration at which growth was inhibited: ≥ 0.2 mg/mL
[6]; [15]
  Concentration at which growth was inhibited: ≥ 0.5 mg/mL
[7]; [20]
  Growth condition of the colony: Inhibited
[7]; [21]
  Growth condition of the colony: Inhibited
[7]; [22]
  Growth condition of the colony: Inhibited
[7]; [13]
  Growth condition of the colony: Inhibited
[7]; [9]
  Growth condition of the colony: Inhibited
[7]; [10]
  Growth condition of the colony: Inhibited
[7]; [11]
  Growth condition of the colony: Inhibited
[7]; [12]
  Growth condition of the colony: Inhibited
[7]; [14]
  Concentration at which growth was inhibited: ≥ 0.9 mg/mL
[7]; [15]
  Concentration at which growth was inhibited: ≥ 2.3 mg/mL
[8]; [20]
  Growth condition of the colony: Inhibited
[8]; [21]
  Growth condition of the colony: Inhibited
[8]; [22]
  Growth condition of the colony: Inhibited
[8]; [13]
  Growth condition of the colony: Inhibited
[8]; [9]
  Growth condition of the colony: Inhibited
[8]; [10]
  Growth condition of the colony: Inhibited
[8]; [11]
  Growth condition of the colony: Inhibited
[8]; [12]
  Growth condition of the colony: Inhibited
[8]; [14]
  Concentration at which growth was inhibited: ≥ 0.9 mg/mL
[8]; [15]
  Concentration at which growth was inhibited: ≥ 2.3 mg/mL
